Results from patent US20170050957A1, “4-AMINO-6-(HETEROCYCLIC)PICOLINATES AND 6-AMINO-2-(HETEROCYCLIC)PYRIMIDINE-4-CARBOXYLATES AND THEIR USE AS HERBICIDES” (Dow AgroSciences LLC, priority 2013, published 2017).

Tested on: Wheat and Barley and test plant species
Assay: Post-emergent Test III, herbicidal activity in wheat and barley (Table 17; visual injury, GR20/GR50/GR80/GR90)
Format: in vivo
Conditions: 21 d; for Visual Growth Reduction (%) 21 Days After Application, CIRAR / Visual Growth Reduction (%) 21 Days After Application, GALAP / Visual Growth Reduction (%) 21 Days After Application, HORVS / Visual Growth Reduction (%) 21 Days After Application, KCHSC / Visual Growth Reduction (%) 21 Days After Application, LAMPU / Visual Growth Reduction (%) 21 Days After Application, MATCH / Visual Growth Reduction (%) 21 Days After Application, PAPRH / Visual Growth Reduction (%) 21 Days After Application, SASKR / Visual Growth Reduction (%) 21 Days After Application, SINAR / Visual Growth Reduction (%) 21 Days After Application, TRZAS / Visual Growth Reduction (%) 21 Days After Application, VERPE / Visual Growth Reduction (%) 21 Days After Application, VIOTR: post-emergent
Experimental: Post-emergent Test III. Seeds of the desired test plant species were planted in Sun Gro MetroMix® 306 planting mixture, which typically has a pH of 6.0 to 6.8 and an organic matter content of about 30 percent, in plastic pots with a surface area of 103.2 square centimeters (cm^2). When required to ensure good germination and healthy plants, a fungicide treatment and/or other chemical or physical treatment was applied. The plants were grown for 7-36 days (d) in a greenhouse with an approximate 14 hour (h) photoperiod which was maintained at about 18° C. during the day and 17° C. during the night. Nutrients and water were added on a regular basis and supplemental lighting was provided with overhead metal halide 1000-Watt lamps as necessary. The plants were employed for testing when they reached the second or third true leaf stage.
A weighed amount, determined by the highest rate to be tested, of each test compound was placed in a 25 mL glass vial and was dissolved in 4 mL of a 97:3 v/v mixture of acetone and DMSO to obtain concentrated stock solutions. […] The concentrated stock solutions obtained were diluted with 20 mL of an aqueous mixture containing acetone, water, isopropyl alcohol, DMSO, Agri-Dex crop oil concentrate, and X-77 surfactant in a 48:39:10:1.5:1.5:0.02 v/v ratio to obtain spray solutions containing the highest application rates. Additional application rates were obtained by serial dilution of 12 mL of the high rate solution into a solution containing 2 mL of 97:3 v/v mixture of acetone and DMSO and 10 mL of an aqueous mixture containing acetone, water, isopropyl alcohol, DMSO, Agri-Dex crop oil concentrate, and X-77 surfactant in a 48:39:10:1.5:1.5:0.02 v/v ratio to obtain 1/2×, 1/4×, 1/8× and 1/16× rates of the high rate. Compound requirements are based upon a 12 mL application volume at a rate of 187 liters per hectare (L/ha). Formulated compounds were applied to the plant material with an overhead Mandel track sprayer equipped with 8002E nozzles calibrated to deliver 187 L/ha over an application area of 0.503 square meters at a spray height of 18 inches (43 cm) above the average plant canopy height. Control plants were sprayed in the same manner with the solvent blank.
The treated plants and control plants were placed in a greenhouse as described above and watered by subirrigation to prevent wash-off of the test compounds. After 21 d, the condition of the test plants as compared with that of the untreated plants was determined visually and scored on a scale of 0 to 100 percent where 0 corresponds to no injury and 100 corresponds to complete kill. By applying the well-accepted probit analysis as described by J. Berkson in Journal of the American Statistical […], 48, 565 (1953) and by D. Finney in “Probit Analysis” Cambridge University Press (1952), the above data can be used to calculate GR20, GR50, GR80 and GR90 values, which are defined as growth reduction factors that correspond to the effective dose of herbicide required to kill or control 20 percent, 50 percent, 80 percent or 90 percent, respectively, of a target plant.

SMILES: Nc1c(F)c(-c2ccc3cc[nH]c3c2F)nc(C(=O)O)c1Cl [Compound 1.16, 4-Amino-3-chloro-5-fluoro-6-(7-fluoro-1H-indol-6-yl)picolinic acid]
- Visual Growth Reduction (%) 21 Days After Application, CIRAR (CIRAR, 17.5 g ai/ha): D (60-74)
- Visual Growth Reduction (%) 21 Days After Application, CIRAR (CIRAR, 35 g ai/ha): B (85-94)
- Visual Growth Reduction (%) 21 Days After Application, CIRAR (CIRAR, 70 g ai/ha): A (95-100)
- GR50, CIRAR (CIRAR, dose for 50 percent growth reduction, probit analysis): 9 g ai/ha
- GR80, CIRAR (CIRAR, dose for 80 percent growth reduction, probit analysis): 25 g ai/ha
- GR90, CIRAR (CIRAR, dose for 90 percent growth reduction, probit analysis): 43 g ai/ha
- Visual Growth Reduction (%) 21 Days After Application, GALAP (GALAP, 17.5 g ai/ha): F (30-44)
- Visual Growth Reduction (%) 21 Days After Application, GALAP (GALAP, 35 g ai/ha): E (45-59)
- Visual Growth Reduction (%) 21 Days After Application, GALAP (GALAP, 70 g ai/ha): A (95-100)
- GR50, GALAP (GALAP, dose for 50 percent growth reduction, probit analysis): 26 g ai/ha
- GR80, GALAP (GALAP, dose for 80 percent growth reduction, probit analysis): 34 g ai/ha
- GR90, GALAP (GALAP, dose for 90 percent growth reduction, probit analysis): 40 g ai/ha
- Visual Growth Reduction (%) 21 Days After Application, HORVS (HORVS, 17.5 g ai/ha): G (0-29)
- Visual Growth Reduction (%) 21 Days After Application, HORVS (HORVS, 35 g ai/ha): G (0-29)
- Visual Growth Reduction (%) 21 Days After Application, HORVS (HORVS, 70 g ai/ha): F (30-44)
- GR20, HORVS (HORVS, dose for 20 percent growth reduction, probit analysis): 44 g ai/ha
- Visual Growth Reduction (%) 21 Days After Application, KCHSC (KCHSC, 17.5 g ai/ha): C (75-84)
- Visual Growth Reduction (%) 21 Days After Application, KCHSC (KCHSC, 35 g ai/ha): B (85-94)
- Visual Growth Reduction (%) 21 Days After Application, KCHSC (KCHSC, 70 g ai/ha): A (95-100)
- GR50, KCHSC (KCHSC, dose for 50 percent growth reduction, probit analysis): 7 g ai/ha
- GR80, KCHSC (KCHSC, dose for 80 percent growth reduction, probit analysis): 20 g ai/ha
- GR90, KCHSC (KCHSC, dose for 90 percent growth reduction, probit analysis): 39 g ai/ha
- Visual Growth Reduction (%) 21 Days After Application, LAMPU (LAMPU, 17.5 g ai/ha): C (75-84)
- Visual Growth Reduction (%) 21 Days After Application, LAMPU (LAMPU, 35 g ai/ha): A (95-100)
- Visual Growth Reduction (%) 21 Days After Application, LAMPU (LAMPU, 70 g ai/ha): A (95-100)
- GR50, LAMPU (LAMPU, dose for 50 percent growth reduction, probit analysis): 3 g ai/ha
- GR80, LAMPU (LAMPU, dose for 80 percent growth reduction, probit analysis): 10 g ai/ha
- GR90, LAMPU (LAMPU, dose for 90 percent growth reduction, probit analysis): 19 g ai/ha
- Visual Growth Reduction (%) 21 Days After Application, MATCH (MATCH, 17.5 g ai/ha): B (85-94)
- Visual Growth Reduction (%) 21 Days After Application, MATCH (MATCH, 35 g ai/ha): A (95-100)
- Visual Growth Reduction (%) 21 Days After Application, MATCH (MATCH, 70 g ai/ha): A (95-100)
- GR50, MATCH (MATCH, dose for 50 percent growth reduction, probit analysis): 3 g ai/ha
- GR80, MATCH (MATCH, dose for 80 percent growth reduction, probit analysis): 9 g ai/ha
- GR90, MATCH (MATCH, dose for 90 percent growth reduction, probit analysis): 16 g ai/ha
- Visual Growth Reduction (%) 21 Days After Application, PAPRH (PAPRH, 17.5 g ai/ha): A (95-100)
- Visual Growth Reduction (%) 21 Days After Application, PAPRH (PAPRH, 35 g ai/ha): A (95-100)
- Visual Growth Reduction (%) 21 Days After Application, PAPRH (PAPRH, 70 g ai/ha): A (95-100)
- GR50, PAPRH (PAPRH, dose for 50 percent growth reduction, probit analysis): 0.0004 g ai/ha
- GR80, PAPRH (PAPRH, dose for 80 percent growth reduction, probit analysis): 0.0004 g ai/ha
- GR90, PAPRH (PAPRH, dose for 90 percent growth reduction, probit analysis): 0.0004 g ai/ha
- Visual Growth Reduction (%) 21 Days After Application, SASKR (SASKR, 17.5 g ai/ha): D (60-74)
- Visual Growth Reduction (%) 21 Days After Application, SASKR (SASKR, 35 g ai/ha): C (75-84)
- Visual Growth Reduction (%) 21 Days After Application, SASKR (SASKR, 70 g ai/ha): B (85-94)
- GR50, SASKR (SASKR, dose for 50 percent growth reduction, probit analysis): 10 g ai/ha
- GR80, SASKR (SASKR, dose for 80 percent growth reduction, probit analysis): 28 g ai/ha
- GR90, SASKR (SASKR, dose for 90 percent growth reduction, probit analysis): 78 g ai/ha
- Visual Growth Reduction (%) 21 Days After Application, SINAR (SINAR, 17.5 g ai/ha): B (85-94)
- Visual Growth Reduction (%) 21 Days After Application, SINAR (SINAR, 35 g ai/ha): A (95-100)
- Visual Growth Reduction (%) 21 Days After Application, SINAR (SINAR, 70 g ai/ha): A (95-100)
- GR50, SINAR (SINAR, dose for 50 percent growth reduction, probit analysis): 5 g ai/ha
- GR80, SINAR (SINAR, dose for 80 percent growth reduction, probit analysis): 11 g ai/ha
- GR90, SINAR (SINAR, dose for 90 percent growth reduction, probit analysis): 17 g ai/ha
- Visual Growth Reduction (%) 21 Days After Application, TRZAS (TRZAS, 17.5 g ai/ha): G (0-29)
- Visual Growth Reduction (%) 21 Days After Application, TRZAS (TRZAS, 35 g ai/ha): G (0-29)
- Visual Growth Reduction (%) 21 Days After Application, TRZAS (TRZAS, 70 g ai/ha): F (30-44)
- GR20, TRZAS (TRZAS, dose for 20 percent growth reduction, probit analysis): 41 g ai/ha
- Visual Growth Reduction (%) 21 Days After Application, VERPE (VERPE, 17.5 g ai/ha): A (95-100)
- Visual Growth Reduction (%) 21 Days After Application, VERPE (VERPE, 35 g ai/ha): A (95-100)
- Visual Growth Reduction (%) 21 Days After Application, VERPE (VERPE, 70 g ai/ha): A (95-100)
- GR50, VERPE (VERPE, dose for 50 percent growth reduction, probit analysis): 0.0004 g ai/ha
- GR80, VERPE (VERPE, dose for 80 percent growth reduction, probit analysis): 0.05 g ai/ha
- GR90, VERPE (VERPE, dose for 90 percent growth reduction, probit analysis): 1 g ai/ha
- Visual Growth Reduction (%) 21 Days After Application, VIOTR (VIOTR, 17.5 g ai/ha): E (45-59)
- Visual Growth Reduction (%) 21 Days After Application, VIOTR (VIOTR, 35 g ai/ha): D (60-74)
- Visual Growth Reduction (%) 21 Days After Application, VIOTR (VIOTR, 70 g ai/ha): C (75-84)
- GR50, VIOTR (VIOTR, dose for 50 percent growth reduction, probit analysis): 19 g ai/ha
- GR80, VIOTR (VIOTR, dose for 80 percent growth reduction, probit analysis): 56 g ai/ha
- GR90, VIOTR (VIOTR, dose for 90 percent growth reduction, probit analysis): 99 g ai/ha
